# Experimental data reported in ChEMBL document CHEMBL5724709, “EUbOPEN Chemogenomics Library - IncuCyte” (2024).
# What was measured:
# Type in all cases: toxicity, cell-based
# U2OS = test: Incucyte cell viability with U2OS; settings: human, 24 h, 10 µM, compound concentration 10 uM
# Fibroblast = test: Incucyte cell viability with human fibroblast; settings: 24 h, 10 µM, compound concentration 10 uM
# HEK-293T = test: Incucyte cell viability with HEK293T; settings: human, 24 h, 10 µM, compound concentration 10 uM
# Further: unitless GR value; below 1 slowed growth and below 0 cell loss.
Compound,Growth Rate (U2OS; replicate number 1),Growth Rate (U2OS; replicate number 2),Growth Rate (Fibroblast; replicate number 1),Growth Rate (Fibroblast; replicate number 2),Growth Rate (HEK-293T; replicate number 1),Growth Rate (HEK-293T; replicate number 2)
CN1CCc2c(n(Cc3ccc(C(=O)NO)cc3)c3ccccc23)C1,0.34,1,1,0.54,0.89,1
O=C(NO)c1cccc(C(=O)NCCc2ccccc2)c1,0.02,0.85,1,-0.07,0.83,0.99
Nc1ccccc1NC(=O)CCCCCC(=O)Nc1ccccc1,0.46,1,1,-0.07,1,
Cc1ccc(NC2=CC(=O)c3sc(C)nc3C2=O)cc1,-0.86,-0.45,-0.84,-0.96,-0.37,-0.23
CCOC(=O)NCCCC(=O)NCCc1ccccc1,0.48,0.84,1,,0.61,0.8
O=C(NCC1(c2nc(-c3ccccc3)cs2)CCOCC1)c1cccc(-c2noc(C(F)(F)F)n2)c1,1,,1,0.44,0.36,0.64
CC(C)NCC(O)COC(Cn1c2ccccc2c2ccccc21)Cn1c2ccccc2c2ccccc21 (stereo unspecified),-0.53,1,1,0.03,1,
CC1=NN(c2ccc(C(=O)O)cc2)C(=O)/C1=C/c1ccc(-c2cc(C)c(C)cc2[N+](=O)[O-])o1,0.18,1,1,,0.84,1
CCC(CC)(NC(=O)C(C)C)C(=O)N[C@@H](CCCNC(=N)N)C(=O)NC1(C(=O)NC(c2ccc(F)cc2)c2ccc(F)cc2)CCCC1,1,0.97,0.56,-0.56,0.95,1
CCC(=O)N1CCOc2c(cc(-c3cc(OC)cc(OC)c3)cc2C(=O)N[C@H]2CCCN(C)C2)C1,0.42,1,0.84,0.98,0.39,0.7
Nc1ccc(-c2cccs2)cc1NC(=O)c1ccc2nc(N3CCNCC3)ccc2c1,0.21,0.63,1,,0.92,0.99
COc1cc2c(NC3CCN(C)CC3)cc(-c3ccc(C)o3)nc2cc1OCCCN1CCCC1,-0.74,-0.55,0.13,-0.42,-0.35,-0.25
COc1cc2c(NCC3CCN(C)CC3)cc(-c3ccc(C)o3)nc2cc1OCCCN1CCCC1,-0.64,-0.51,0.34,-0.3,-0.36,-0.29
CNC(=O)c1ccc(-c2cc3cccc(-c4nn(C5CCOCC5)c5c4CN(C(C)=O)CC5)c3cn2)cn1,0.12,0.95,1,,0.61,0.57
COc1nc(N)nc(Nc2cc(S(N)(=O)=O)ccc2N[C@@H](c2cccc3c2OC(F)(F)O3)c2ncccc2Cl)n1,1,0.89,1,,0.97,1
Cc1cc(C)cc(Oc2ccc(CNC(=O)[C@H](C)N)cc2C)c1.Cl,0.69,1,1,,0.84,0.89
COc1nc(Nc2cc(S(C)(=O)=O)ccc2N[C@@H](c2cccc3c2OC(F)(F)O3)c2ncccc2Cl)nc(N2CCNCC2)n1,-0.91,-0.02,-0.22,-0.7,-0.57,-0.39
O=C(NO)C(c1ccc(-c2ncc(C(F)(F)F)cn2)cc1)c1ccccc1F (stereo unspecified),0.6,0.81,0.37,-0.57,-0.14,0.69
C=CC(=O)Nc1cccc(-c2c[nH]cc2CN(C)CCN)c1,0.21,1,0.37,1,0.75,0.9

Compound,Growth Rate (U2OS; replicate number 1),Growth Rate (U2OS; replicate number 2),Growth Rate (Fibroblast; replicate number 1),Growth Rate (Fibroblast; replicate number 2),Growth Rate (HEK-293T; replicate number 1),Growth Rate (HEK-293T; replicate number 2)
OC1CN=C2c3ccn([C@@H]4O[C@H]([C@H](O)c5ccc(Cl)cc5)[C@@H](O)[C@H]4O)c3N=CN21 (stereo partly specified),1,0.79,1,-0.38,1,
CC(C)(C)c1ccc(CN(C(=O)CN(Cc2c(F)c(F)c(F)c(F)c2F)S(=O)(=O)c2ccc(F)cc2)c2ccc(C(=O)NO)cc2)cc1,0.17,1,0.66,-0.2,0.62,0.53
Cc1ccc(N2C(=O)/C(=C/C=C/c3ccco3)C(=O)NC2=S)cc1Cl,1,,0.45,1,0.94,1
CCCOC(=O)N1CCN(C(=O)c2ccc3c(Cl)cc(-c4ccc(C5(N)CC5)cc4)nc3c2)C[C@H]1C,0.52,1,1,-0.86,0.01,0.3
CC(C)(CNC(=O)c1cccc(-c2noc(C(F)(F)F)n2)c1)c1coc(-c2ccccc2)n1,1,,0.48,0.8,0.69,0.79
Cc1ncccc1-c1cnc(NCc2c(F)ccc3c2CCO3)n2cnnc12,1,0.88,0.59,0.1,0.64,1
CCCCCCCCCCCCCCCCNNC(=O)c1cccs1,0.83,1,0.8,0.19,0.8,1
CNC(=O)Cn1cc(-c2ccc3c(c2)[C@H](F)C[C@]32NC(=O)N(CC(=O)N(Cc3ccc(F)cc3)[C@@H](C)C(F)(F)F)C2=O)cn1,-0.12,0.63,0.7,-0.43,-0.53,0.24
Cc1ccc(F)c2cc(C(=O)N[C@@H]3CCC[C@H](N4CC[C@H](N(C)S(C)(=O)=O)C4)C3)[nH]c12,1,0.67,1,,0.35,0.62
CC(C)(C)OC(=O)Nc1ccc(-c2cc(C(=O)NCCCCCCC(=O)NO)no2)cc1,0.28,0.63,1,-0.09,0.72,0.67
Cc1cc(-c2ccc3nc(C4CCOCC4)n(CCOC(F)(F)F)c3c2)cn(C)c1=O,-0.23,0.68,0.36,-0.06,0.62,0.67
Cc1ncsc1-c1ccc([C@H](C)NC(=O)[C@@H]2C[C@@H](O)CN2C(=O)[C@@H](NC(=O)CNC(=O)c2ccc(F)c(-c3ccc(N4C[C@@H](C)N(C)[C@@H](C)C4)c(NC(=O)c4c[nH]c(=O)cc4C(F)(F)F)c3)c2)C(C)(C)C)cc1,1,0.89,-0.11,0.89,0.6,0.78
CN(C)Cc1ccc(S(=O)(=O)n2ccc(/C=C/C(=O)NO)c2)cc1.Cl,0.51,-0.17,0.79,-0.05,0.53,0.75
CN(C)CCCN(CC[C@H](N)C(=O)O)C[C@H]1O[C@@H](n2cnc3c(N)ncnc32)[C@H](O)[C@@H]1O.O=C(O)C(F)(F)F,1,,0.74,0.03,0.85,0.98
Cc1nc(F)ccc1-c1cc(Cn2ccn(C)c2=N)cc(C(=O)NCc2ccc(Cl)c(Cl)c2)c1.O=C(O)C(F)(F)F,1,,0.97,0.38,0.97,0.95
CCOCC1(COCC)CCC(c2n[nH]cc2CN(C)CCNC)CC1.Cl,0.95,,1,0.32,0.61,0.63
O=C1Cc2cc(C(=O)N[C@@H]3C[C@H]4CC[C@@H](C3)N4S(=O)(=O)CC3CCN(CCCC(F)(F)F)CC3)c(Cl)cc2N1,1,,0.96,0.61,0.97,1
Br.N#Cc1ccc(-c2csc(NN=C3CCCC3)n2)cc1,0.63,1,0.31,0.62,-0.06,0.21
CNCCN(C)Cc1cn[nH]c1-c1ccc(OC2CC(OCCC3CCOCC3)C2)cc1 (stereo unspecified),0.23,1,0.77,0.95,0.64,0.82
